Values joined by “and” are separate entries in the source; they are usually repeats but may differ in a detail not shown here. Equal entries are not always repeated. Where two headings read alike, the source gives them in different places.
Legend:
[1] = Solubility; type: physicochemical
Source text: (§1) In the above table, the physicochemical data, e.g., solubility, were obtained following standard protocols known in the field (see, e.g., Reis et al., Mini Rev Med Chem., 2010, 10(11):1071-6; Avdeef et al., Expert Opin Drug Metab Toxicol., 2005, 1(2):325-42; Bharate et al., Comb Chem High Throughput Screen., 2016, 19(6):461-9; and Jain et al., J Pharm Biomed Anal., 2013, 86:11-35); and the biochemical data, i.e., potency for ETA/ETB, were obtained following the protocols known in the field (see, e.g., Kirkby et al., Br J Pharmacol., 2008, 153(6):1105-19; and Maguire et al., Br J Pharmacol., 2014, 171(24):5555-72).

[2] = Stability in solid state; type: physicochemical; conditions: 2 h @ l25° C.
Source text: as §1

[3] = LogD; type: physicochemical; conditions: pH 7.4
Source text: as §1

[4] = Permeability (PAMPA); type: in vitro ADME; conditions: rating in words
Source text: as §1

[5] = tested on: ET-1 induced vasospasm; test: Rabbit ET-1 induced vasospasm model, retinal blood flow; type: in vivo
Description: Adult, male Dutch-belted rabbits were given a 20 μl intravitreal injection (IVT) of 0.5 μg of ET-1 followed by a 20 μl intravitreal injection of 10-100 μg Edonentan given 30 min after the ET-1 administration. IOP, optical coherence tomography-angiography (OCT-A), and fluorescein angiograms (FA) were performed at pre-specified time points (30, 45, 60, and 75 min) following ET-1 and Edonentan administration to assess retinal blood flow changes induced by ET-1+/−Edonentan. […] To evaluate the effect of retinal blood flow following intravitreally administered endothelin-1 (ET-1) followed by the antagonist Edonentan in the rabbit, rabbits (Oryctolagus cuniculus) were given a 20 μL intravitreal injection of ET-1 in the left eye followed by a 20 μL intravitreal injection of Edonentan at 2 (or 3) different doses (e.g. 0.1 μg, 0.5 μg, 2.5 μg). The pulse ox, tonometry, optical coherence tomography angiography (OCTA), fluorescein angiography (FA) and retinal leakage scoring were performed for evaluation.

[6] = tested on: oxygen-induced ischemic retinopathy; test: Mouse oxygen-induced ischemic retinopathy (OIR) model; type: in vivo, mice; conditions: IVT 1 μL of 2 μg/μL, single dose; 24, 48, 96 hours
Description: A relevant mice model was used to obtain the retinal hypoxia area in mice with oxygen-induced ischemic retinopathy (OIR) at different time points, as shown in FIG. 4. […] Briefly, at P17, mice with OIR (n=60) were given an injection of ET-1 antagonist (1 μL of 2 μg/μL Edonentan formulation, single dose) in one eye and PBS in the fellow eye. At 24, 48, and 96 hours after injection, mice (n=10 for each time point) were euthanized and the retinas were dissected and stained with GSA lectin and hypoxyprobe. The area of NV, area of retinal hypoxia, and the area of retinal nonperfusion were determined for each retina.

[7] = Pharmacokinetics after topical or oral administration in the rat; type: in vivo, Brown Norway rats
Description: After the administrations, the animals (N=2) were euthanized at different time points (e.g. 4 and 8 hours) and tissues were collected for analysis. List of tissues collected include plasma, retina/retinal pigment epithelium (RPE)/choroid, vitreous humor and aqueous humor.

[8] = Pharmacokinetics after topical administration in the rabbit; type: in vivo, Dutch-belted rabbits; conditions: single topical eye drop 100 μg; 10 minutes, 2 and 7 hours
Description: To determine the pharmacokinetic properties of Edonentan following topical administration in the rabbit, rabbits (Dutch-belted rabbits) received an eye drop in both eyes (100 μg of Edonentan, 35 μL dose volume/eye). After the administrations, the animals (N=2) were euthanized at different time points (e.g. 10 minutes (immediately after pot-dose), 2 and 7 hours) and tissues were collected for analysis. List of tissues collected include plasma, retina, vitreous humor and bulbar conjunctiva.

[9] = tested on: laser-induced glaucoma; test: Laser-induced non-human primate glaucoma model, optic nerve head blood flow (LSFG); type: in vivo, rhesus macaque, Macaca mulatta; conditions: IVT 50 μL of 0.02, 0.2 or 2.0 mg/mL, glaucomatous eye, over 6 hours
Description: Non-human primates (rhesus macaque, Macaca mulatta) were obtained for this study. One eye of each animal underwent induction of elevation of intraocular pressure (IOP) by repeated laser photocoagulation of the trabecular meshwork. Imaging sessions were repeated to monitor the optic nerve head (ONH) and retinal structural changes. A study was performed to compare an experimental glaucoma eye and a contralateral healthy eye (control) of three non-human primates in global average mean blur rate (MBR) and MBR change from baseline over time as an index of ONH blood flow in a laser-induced glaucoma model. More specifically, a vehicle control, 0.02 mg/mL of Edonentan, 0.2 mg/mL of Edonentan, or 2.0 mg/mL of Edonentan was intravitreally administered (50 μL) to a glaucomatous eye of each of three non-human primates (rhesus macaque, Macaca mulatta). These graphs show the ONH blood flow in the three non-human primates after IVT administration of a vehicle alone (FIG. 7A, FIG. 7E, and FIG. 7I), 0.02 mg/mL of Edonentan (FIG. 7B, FIG. 7F, and FIG. 7J), 0.2 mg/mL of Edonentan (FIG. 7C, FIG. 7G, and FIG. 7K) or 2.0 mg/mL of Edonentan (FIG. 7D, FIG. 7H, and FIG. 7L).

**Q.** With Cc1onc(NS(=O)(=O)c2ccccc2-c2ccc(-c3ncco3)cc2CN(C)C(=O)CC(C)(C)C)c1C [Edonentan, N-[[2′-[[(4,5-dimethyl-3-isoxazolyl)amino]sulfonyl]-4-(2-oxazolyl)[1,1′-biphenyl]-2-yl]methyl]-N,3,3-trimethylbutanamide] as the compound, how does the solubility ([1]; aqueous buffer, pH 7, amorphous form, read-out: Solubility at pH 7) read?
**A.** Its solubility is 326 µg/mL and 607 µM.

**Q.** What about the solubility ([1]; ethyl acetate, organic solvent or mixture, read-out: Solubility in Ethyl Acetate) of the same compound?
**A.** Its solubility is > 8900 µg/mL and > 16800 µM.

**Q.** And the “Solubility in Ethyl Acetate (rating)” value ([1]; ethyl acetate, rating in words)?
**A.** The value was “Good”.

**Q.** What about the solubility ([1]; pH 2, simulated gastric fluid, read-out: Solubility at pH 2) of the same compound?
**A.** The solubility was < 0.54 µg/mL and < 1 µM.

**Q.** And the “Stability in Solid State (rating)” value [2]?
**A.** The value was “Stable”.

**Q.** What about the logD [3] of the same compound?
**A.** Its logD is 1.48.

**Q.** What about the “Permeability (rating)” value [4] of the same compound?
**A.** The value was “Mid-High”.

**Q.** And the “Fluorescein dye velocity, dose dependence” value ([5]; 0.1 μg ET-1 and 0.1, 0.5, 2.5 or 10 μg Edonentan IVT, FIG. 8A/8B)?
**A.** The value was “dose-response”.

**Q.** What about the “Effect of ET-1 (retinal vasoconstriction) after antagonist, fluorescein angiography” value ([5]; 0.5 μg ET-1 IVT, 10 μg Edonentan IVT 30 min after ET-1) of the same compound?
**A.** Its value is “reversed”.

**Q.** And the “Time to reversal of ET-1 effect” value ([5]; 0.5 μg ET-1 IVT, 10 μg Edonentan IVT, time after ET-1 (60 min after Edonentan))?
**A.** Its value is at most 90 min.

**Q.** What about the “Fluorescein dye velocity as an index of retinal blood flow” value ([5]; 0.5 μg ET-1 and 10 μg antagonist IVT, healthy rabbits, FIG. 3) of the same compound?
**A.** The value was “improved to control levels”.

**Q.** What about the Retinal hypoxia area [6] of the same compound?
**A.** Its Retinal hypoxia area is “improvement”.

**Q.** And the “Detection in aqueous humor” value ([7]; oral, 17 mg/kg)?
**A.** Its value is “detectable”.

**Q.** And the “Detection in retina/RPE/choroid and vitreous humor” value ([7]; oral, 1.7 and 17 mg/kg)?
**A.** Its value is “detectable”.

**Q.** And the “Detection in retina/RPE/choroid, aqueous humor and vitreous humor” value ([7]; topical eye drop 100 μg, 4 and 8 hours post-administration)?
**A.** The value was “detected”.

**Q.** What about the “Detection in plasma, retina, vitreous humor and bulbar conjunctiva” value [8] of the same compound?
**A.** Its value is “detected in all tissues examined at all timepoints”.

**Q.** And the “Optic nerve head (ONH) blood flow, mean blur rate (MBR)” value [9]?
**A.** The value was “improvement of ONH blood flow in a dose-dependent manner”.
